Measured values from patent US6743929B1, “Sulfonylalkanoylamino hydroxyethylamino sulfonamides useful as retroviral protease inhibitors” (G. D. Searle & Co., priority 1992, dated 2004).
Read-outs that look alike come from different tables or passages of the source.

Key:
HIV-1 = assay: CEM cell assay: HIV inhibition in acutely infected cells (MTT); assay type: cell-based; details: Human immunodeficiency virus 1, CCRF-CEM, 168 h
Protocol: The effectiveness of compounds of the present invention were determined in a CEM cell assay.
(§1) The HIV inhibition assay method of acutely infected cells is an automated tetrazolium based calorimetric assay essentially that reported by Pauwles et al, J. Virol. Methods, 20, 309-321 (1988). Assays were performed in 96-well tissue culture plates. CEM cells, a CD4+ cell line, were grown in RPMI-1640 medium (Gibco) supplemented with a 10% fetal calf serum and were then treated with polybrene (2 μg/ml). An 80 μl volume of medium containing 1×10^4 cells was dispensed into each well of the tissue culture plate. To each well was added a 100 μl volume of tesc compound dissolved in tissue culture medium (or medium without test compound as a control) to achieve the desired final concentration and the cells were incubated at 37° C. for 1 hour. A frozen culture of HIV-1 was diluted in culture medium to a concentration of 5×10^4 TCID50 per ml (TCID50=the dose of virus that infects 50% of cells in tissue culture), and a 20 μL volume of the virus sample (containing 1000 TCID50 of virus) was added to wells containing test compound and to wells containing only medium (infected control cells). Several wells received culture medium without virus (uninfected control cells). Likewise, the intrinsic toxicity of the test compound was determined by adding medium without virus to several wells containing test compound. In summary, the tissue culture plates contained the following experiments:
(§2) In experiments 2 and 4 the final concentrations of test compounds were 1, 10, 100 and 500 μg/ml. Either azidothymidine (AZT) or dideoxyinosine (ddI) was included as a positive drug control. […] DMSO was added to all control wells at an appropriate concentration.
(§3) Following the addition of virus, cells were incubated at 37° C. in a humidified, 5% CO2 atmosphere for 7 days. Test compounds could be added on days 0, 2 and 5 if desired. On day 7, post-infection, the cells in each well were resuspended and a 100 μl sample of each cell suspension was removed for assay. A 20 μL volume of a 5 mg/ml solution of 3-(4,5-dimethylthiazol-2-yl)-2,5-diphenyltetrazolium bromide (MTT) was added to each 100 μL cell suspension, and the cells were incubated for 4 hours at […] in a 5% CO2 environment. […] To each sample was added 100 μl of 10% sodium dodecylsulfate in 0.01 N HCl to lyse the cells, and samples were incubated overnight. The absorbance at 590 nm was determined for each sample using a Molecular Devices microplate reader. Absorbance values for each set of wells is compared to assess viral control infection, uninfected control cell response as well as test compound by cytotoxicity and antiviral efficacy.

CEM cells = assay: CEM cell assay: intrinsic toxicity of test compound in uninfected cells (MTT); assay type: cell-based; details: Table 10, CEM cells without virus, 7 days
Protocol: as §1, §2, §3

HIV protease = biological target: T1, HIV protease (Human immunodeficiency virus type 1 group M subtype B, UniProt P04585); assay: HIV protease enzyme assay (fluorogenic substrate 2-aminobenzoyl-Ile-Nle-Phe(p-NO2)-Gln-ArgNH2); assay type: biochemical
T1 construct: HIV protease is diluted in the assay buffer to a final enzyme concentration of 12.3 nanomolar, based on a molecular weight of 10,780
Source text: The compounds of the present invention are effective HIV protease inhibitors. Utilizing an enzyme assay as described below, the compounds set forth in the examples herein disclosed inhibited the HIV enzyme. The preferred compounds of the present invention and their calculated IC50 (inhibiting concentration 50%, i.e., the concentration at which the inhibitor compound reduces enzyme activity by 50%) values are sh6wn in Table 16. The enzyme method is described below. The substrate is 2-aminobenzoyl-Ile-Nle-Phe(p-NO2)-Gln-ArgNH2. The positive control is MVT-101 (Miller, M. et al, Science, 246, 1149 (1989)] The assay conditions are as follows:
The above described substrate is dissolved in DMSO, then diluted 10 fold in assay buffer. Final substrate concentration in the assay is 80 μM.
HIV protease is diluted in the assay buffer to a final enzyme concentration of 12.3 nanomolar, based on a molecular weight of 10,780.
The final concentration of DMSO is 14% and the final concentration of glycerol is 18%. The test compound is dissolved in DMSO and diluted in DMSO to 10×the test concentration; 10 μl of the enzyme preparation is added, the materials mixed and then the mixture is incubated at ambient temperature for 15 minutes. The enzyme reaction is initiated by the addition of 40 μl of substrate. The increase in fluorescence is monitored at 4 time points (0, 8, 16 and 24 minutes) at ambient temperature. Each assay is carried out in duplicate wells.

[1] = Table 10, CEM cells infected with HIV-1, 7 days, MTT, read-out: EC50

SMILES | EC50 (HIV-1; [1]) [nM] | TD50 (nM) (CEM cells) | IC50 (HIV protease) [nM] | EC50 (HIV-1) [nM]
CCCCN(C[C@@H](O)[C@H](Cc1ccccc1)NC(=O)[C@H](C)CS(C)(=O)=O)S(=O)(=O)c1ccccc1 (relative stereo) [Example 6, Propanamide, N-[2-Hydroxy-3-(butyl)(phenylsulfonyl)amino]-1-(phenylmethyl)propyl]-2-methyl-3-(methylsulfonyl)-. [1S-[1R*(R*),2S*]]-] | 29 | 133,000 nM | 8.8 | –
CC(C)CCN(C[C@@H](O)[C@H](Cc1ccccc1)NC(=O)[C@H](C)CS(C)(=O)=O)S(=O)(=O)c1ccccc1 (relative stereo) [Example 4, Propanamide, N-[2-Hydroxy-3-[(3-methylbutyl)(phenylsulfonyl)amino]-1-(phenylmethyl)propyl]-2-methyl-3-(methylsulfonyl)-. [1S-[1R*(R*), 2S*]]-] | 12 | >1,000,000 nM | 3 | –
CC(C)CCN(C[C@@H](O)[C@H](Cc1ccccc1)NC(=O)[C@H](C)CS(C)(=O)=O)S(=O)(=O)c1ccc(N)cc1 (relative stereo) [Example 11, Propanamide, N-[2-Hydroxy-3-[(3-methylbutyl)(4-aminophenylsulfonyl)amino]-1-(phenylmethyl)propyl]-2-methyl-3-(methylsulfonyl)-,[1S-[1R*(R*),2S*]]-] | 45 | 170,000 nM | 7.8 | –
COc1ccc(S(=O)(=O)N(CC(C)C)C[C@@H](O)[C@H](Cc2ccccc2)NC(=O)[C@H](C)CS(C)(=O)=O)cc1 (relative stereo) [Example 7, propanamide, N-[2-Hydroxy-3-[(2-methylpropyl)(4-methoxyphenylsulfonyl)amino]-1-(phenylmethyl)propyl]-2-methyl-3-(methylsulfonyl)-,[1S-[1R*(R*),2S*]]-] | 2 | >1,000,000 nM | 1.9 | –
CC(C)CN(C[C@@H](O)[C@H](Cc1ccccc1)NC(=O)[C@H](C)CS(C)(=O)=O)S(=O)(=O)c1ccccc1 (relative stereo) [Example 3, Propanamide, N-[2-Hydroxy-3-[(2-methylpropyl)(phenylsulfonyl)amino]-1-(phenylmethyl)propyl]-2-methyl-3-(methylsulfonyl)-, [1S-[1R*(R*),2S*]]-] | 10 | 213,000 nM | 3.2 | –
CCCCN(C[C@@H](O)[C@H](Cc1ccccc1)NC(=O)[C@H](C)CS(C)(=O)=O)S(=O)(=O)c1ccc(OC)cc1 (relative stereo) [Example 8, Propanamide, N-[2-Hydroxy-3-[(butyl)(4-methoxyphenylsulfonyl)amino]-1-(phenylmethyl)propyl]-2-methyl-3-(methylsulfonyl)-,[1S-[1R*(R*),2S*]]-] | 9 | >1,000,000 nM | 3.1 | –
COc1ccc(S(=O)(=O)N(CC(C)C)C[C@@H](O)[C@H](Cc2ccccc2)NC(=O)[C@H](C)CS(C)(=O)=O)cc1OC (relative stereo) [Example 12, Propanamide, N-[2-Hydroxy-3-[(2-methylpropyl)(3.4-dimethoxyphenylsulfonyl)amino]-1-(phenylmethyl)propyl]-2-methyl-3-(methylsulfonyl)-,[1S-[1R*(R*),2S*]]-] | 87 | 77,000 nM | 38 | –
CCCN(C[C@@H](O)[C@H](Cc1ccccc1)NC(=O)[C@H](C)CS(C)(=O)=O)S(=O)(=O)c1ccccc1 (relative stereo) [Example 5, Propanamide, N-[2-Hydroxy-3-(propyl)(phenylsulfonyl)amino]-1-(phenylmethyl)propyl]-2-methyl-3-(methylsulfonyl)-, [1S-[1R* (R*), 2S*]]-] | 25 | 438,000 nM | 13 | –
CC(=O)Nc1ccc(S(=O)(=O)N(CC(C)C)C[C@@H](O)[C@H](Cc2ccccc2)NC(=O)[C@H](C)CS(C)(=O)=O)cc1 (relative stereo) [Example 10, Propanamide, N-[2-Hydroxy-3-[(2-methylpropyl)(4-acetamido)phenylsulfonyl)amino]-1-(phenylmethyl)propyl]-2-methyl-3-(methylsulfonyl)-,[1S-[1R*(R*),2S*]]-] | – | 860,000 nM | – | 223
COc1ccc(S(=O)(=O)N(CCC(C)C)C[C@@H](O)[C@H](Cc2ccccc2)NC(=O)[C@H](C)CS(C)(=O)=O)cc1 (relative stereo) [Example 2, Propanamide, N-[2-Hydroxy-3-[(3-methylbutyl)(4-methoxyphenylsulfonyl)aminol-1-(phenylmethyl)propyl]-2-methyl-3-(methylsulfonyl)-[1S-[1R*(R*),2S*]]-] | 12 | 90,000 nM | 3.2 | –
CCCN(C[C@@H](O)[C@H](Cc1ccccc1)NC(=O)[C@H](C)CS(C)(=O)=O)S(=O)(=O)c1ccc(OC)cc1 (relative stereo) [Example 9, propanamide, N-[2-Hydroxy-3-[(propyl)(4-methoxyphenylsulfonyl)amino]-1-(phenylmethyl)propyl]-2-methyl-3-(methylsulfonyl)-,[1S-[1R*(R*),2S*]]-] | 16 | >1,000,000 nM | 4.1 | –
